# Measurements taken from article PMC3816736 (Biochemical pharmacology, 2013).
# Tests used:
# xanthine oxidase (XO) [1] = target: T1, xanthine oxidase (XO) (Bos taurus, UniProt P80457); assay: spectrophotometric uric acid formation at […] nm, […] compound; format: biochemical
# xanthine oxidase (XO) [2] = target: T1, xanthine oxidase (XO); assay: spectrophotometric uric acid formation at […] nm; format: biochemical
# T1 sequence (P80457 2-1332): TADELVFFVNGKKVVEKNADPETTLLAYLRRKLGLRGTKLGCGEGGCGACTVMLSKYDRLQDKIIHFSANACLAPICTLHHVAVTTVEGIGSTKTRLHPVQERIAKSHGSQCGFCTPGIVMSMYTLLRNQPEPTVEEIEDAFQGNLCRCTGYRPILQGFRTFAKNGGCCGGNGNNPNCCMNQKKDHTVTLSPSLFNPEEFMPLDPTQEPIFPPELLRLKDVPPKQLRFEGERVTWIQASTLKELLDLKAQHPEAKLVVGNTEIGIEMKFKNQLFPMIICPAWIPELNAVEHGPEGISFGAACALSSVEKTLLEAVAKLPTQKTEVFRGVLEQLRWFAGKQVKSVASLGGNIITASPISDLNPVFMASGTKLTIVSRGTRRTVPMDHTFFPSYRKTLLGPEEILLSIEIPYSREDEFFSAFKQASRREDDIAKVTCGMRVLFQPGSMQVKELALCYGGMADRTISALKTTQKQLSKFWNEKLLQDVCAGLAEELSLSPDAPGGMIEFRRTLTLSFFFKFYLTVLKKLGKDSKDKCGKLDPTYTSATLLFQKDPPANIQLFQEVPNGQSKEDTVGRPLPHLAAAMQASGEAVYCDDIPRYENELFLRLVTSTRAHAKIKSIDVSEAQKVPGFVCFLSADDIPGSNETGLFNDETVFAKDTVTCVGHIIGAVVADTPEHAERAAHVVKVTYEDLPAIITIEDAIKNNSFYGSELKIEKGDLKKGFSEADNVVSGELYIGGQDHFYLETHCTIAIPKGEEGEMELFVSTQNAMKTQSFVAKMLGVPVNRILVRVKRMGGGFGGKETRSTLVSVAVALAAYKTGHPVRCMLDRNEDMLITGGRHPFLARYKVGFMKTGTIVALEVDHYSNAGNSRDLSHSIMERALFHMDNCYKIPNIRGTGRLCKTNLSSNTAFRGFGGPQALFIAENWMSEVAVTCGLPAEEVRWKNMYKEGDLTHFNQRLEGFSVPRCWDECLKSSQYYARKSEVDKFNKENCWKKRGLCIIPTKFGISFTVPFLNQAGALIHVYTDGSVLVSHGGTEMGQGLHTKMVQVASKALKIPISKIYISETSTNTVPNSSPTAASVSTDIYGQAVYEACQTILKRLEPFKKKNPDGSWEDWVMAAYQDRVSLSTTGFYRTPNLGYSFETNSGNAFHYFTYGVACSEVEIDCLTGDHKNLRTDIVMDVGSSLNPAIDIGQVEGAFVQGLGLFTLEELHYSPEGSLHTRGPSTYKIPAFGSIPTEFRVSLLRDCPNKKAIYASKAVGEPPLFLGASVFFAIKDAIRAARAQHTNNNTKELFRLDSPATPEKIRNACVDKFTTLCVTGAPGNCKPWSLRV
Structure (SMILES),"spectrophotometric uric acid formation at 295 nm, 20 μM compound (xanthine oxidase (XO) [1])",IC50 (xanthine oxidase (XO) [2]) [µM]
"O=Cc1ccc(O)c(O)c1 [DHB-CHO, 3,4-dihydroxybenzaldehyde]","−CHO group such as DHNB, DH6NB, DHB-CHO and THB-CHO had an inhibitory effect on XO",
"OCc1ccc(O)c(O)c1 [DHBA, 3,4-dihydroxybenzyl alcohol]",,76
"O=Cc1cc(O)c(O)c(O)c1 [THB-CHO, 3,4,5-trihydroxybenzaldehyde]",,> 80
